For orientation: Ki means the equilibrium dissociation constant of an inhibitor or competing ligand from its target.

For one assay, the target named is Melatonin receptor. It counts as protein assay, Ovis aries.
Assay [1] addresses T1, Melatonin receptor (Homo sapiens) (UniProt P48039+P49286). Put plainly: Binding affinity against ovine pars tuberalis melatonin receptor using 2-[125I]- melatonin radioligand binding assay. The conditions noted are these: Ovis aries; target entry is the homologue from another species. The format is protein assay.
Assay [2] has as its target T1, Melatonin receptor (Homo sapiens). As to the kind of experiment: Compound was evaluated for agonistic activity against cAMP production stimulated by forskolin; Potential stimulation. The conditions noted are these: Ovis aries; filed as agonist. It counts as functional. For orientation: cAMP levels reflect the balance of adenylyl cyclase and phosphodiesterase activity.

At Melatonin receptor, `CC(=O)NCCc1cccc2ccc3c(c12)C=CCO3` gave a Ki of 0.137 nM.

On Melatonin receptor, `CC(=O)NCCc1cccc2ccc3c(c12)C(=O)CO3` registered a Ki of 13.9 nM.

`CC(=O)NCCc1cccc2ccc3c(c12)CCCO3` registered a Ki on Melatonin receptor of 0.216 nM.

In the case of `CC(=O)NCCc1cccc2ccc3c(c12)CC(C)O3` (stereo not given), in assay [1], the KH came to 0.0069 pM and the KL amounted to 1.2 nM.

As to `CC(=O)NCCC1CCCc2cc3c(cc21)OCCO3` (stereo not given), in assay [2], the Activity result is “Agonist”. The molecule also showed a Ki on Melatonin receptor of 62.2 nM.

Consider `CC(=O)NCCc1cccc2ccc3c(c12)C(O)CO3` (stereo not given), for which, on Melatonin receptor, the Ki amounted to 130 nM.

As for `CC(=O)NCCC1CCCc2ccc3c(c21)CCCO3` (stereo not given), the Activity entry in assay [2] was “Agonist”. The molecule further came in with a Ki on Melatonin receptor of 6.17 nM.

For the origin of these results see ChEMBL document CHEMBL1128911 (Bioorg Med Chem Lett, 1996).
